In publication PMC6199744, “Development of Chemical Proteomics for the Folateome and Analysis of the Kinetoplastid Folateome” (ACS Infectious Diseases, 2018):
Where two headings read alike, the source gives them in different places.

How the values were obtained:
Type in all cases: binding
[1] = target: T1, HeLa cell extract proteins (Homo sapiens, UniProt O00303)
T1 construct: endogenous in cells; host or cells: HeLa cell extract

[2] = target: T2, HeLa cell extract proteins (Homo sapiens, UniProt P15121)
T2 construct: endogenous in cells; host or cells: HeLa cell extract

[3] = target: T3, HeLa cell extract proteins (Homo sapiens, UniProt P23528)
T3 construct: endogenous in cells; host or cells: HeLa cell extract
T3 sequence (P23528 whole entry): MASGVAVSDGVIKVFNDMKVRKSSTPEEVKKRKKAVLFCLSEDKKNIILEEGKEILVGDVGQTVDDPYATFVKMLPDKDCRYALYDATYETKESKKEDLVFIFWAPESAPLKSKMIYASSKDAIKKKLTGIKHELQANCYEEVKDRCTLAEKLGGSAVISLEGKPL

[4] = target: T4, HeLa cell extract proteins (Homo sapiens, UniProt P31689)
T4 construct: endogenous in cells; host or cells: HeLa cell extract
T4 sequence (P31689 whole entry): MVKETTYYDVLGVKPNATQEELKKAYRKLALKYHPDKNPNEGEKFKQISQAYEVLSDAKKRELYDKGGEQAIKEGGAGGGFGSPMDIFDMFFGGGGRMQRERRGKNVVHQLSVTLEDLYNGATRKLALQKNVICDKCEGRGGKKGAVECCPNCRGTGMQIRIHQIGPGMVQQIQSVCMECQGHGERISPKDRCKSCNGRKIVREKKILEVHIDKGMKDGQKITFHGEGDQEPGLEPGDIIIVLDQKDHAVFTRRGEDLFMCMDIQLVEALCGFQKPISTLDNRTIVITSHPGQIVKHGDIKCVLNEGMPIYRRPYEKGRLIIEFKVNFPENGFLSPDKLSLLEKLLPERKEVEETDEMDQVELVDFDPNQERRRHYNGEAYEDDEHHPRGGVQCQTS

[5] = target: T5, HeLa cell extract proteins (Homo sapiens, UniProt P31943)
T5 construct: endogenous in cells; host or cells: HeLa cell extract
T5 sequence (P31943 1-449): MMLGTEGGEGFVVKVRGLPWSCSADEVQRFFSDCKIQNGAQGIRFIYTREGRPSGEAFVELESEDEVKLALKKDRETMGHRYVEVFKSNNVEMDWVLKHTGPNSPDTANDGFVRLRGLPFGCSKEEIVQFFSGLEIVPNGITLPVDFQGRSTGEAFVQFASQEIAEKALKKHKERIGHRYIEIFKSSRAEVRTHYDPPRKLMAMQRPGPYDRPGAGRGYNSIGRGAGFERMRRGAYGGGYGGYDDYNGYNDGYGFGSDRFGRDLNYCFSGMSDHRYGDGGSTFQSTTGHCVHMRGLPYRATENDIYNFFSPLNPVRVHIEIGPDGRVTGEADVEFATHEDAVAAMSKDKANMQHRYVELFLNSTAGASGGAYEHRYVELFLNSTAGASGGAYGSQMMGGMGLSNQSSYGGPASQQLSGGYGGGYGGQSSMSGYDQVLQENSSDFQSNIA

[6] = target: T6, HeLa cell extract proteins (Homo sapiens, UniProt P52272)
T6 construct: endogenous in cells; host or cells: HeLa cell extract
T6 sequence (P52272 1-730): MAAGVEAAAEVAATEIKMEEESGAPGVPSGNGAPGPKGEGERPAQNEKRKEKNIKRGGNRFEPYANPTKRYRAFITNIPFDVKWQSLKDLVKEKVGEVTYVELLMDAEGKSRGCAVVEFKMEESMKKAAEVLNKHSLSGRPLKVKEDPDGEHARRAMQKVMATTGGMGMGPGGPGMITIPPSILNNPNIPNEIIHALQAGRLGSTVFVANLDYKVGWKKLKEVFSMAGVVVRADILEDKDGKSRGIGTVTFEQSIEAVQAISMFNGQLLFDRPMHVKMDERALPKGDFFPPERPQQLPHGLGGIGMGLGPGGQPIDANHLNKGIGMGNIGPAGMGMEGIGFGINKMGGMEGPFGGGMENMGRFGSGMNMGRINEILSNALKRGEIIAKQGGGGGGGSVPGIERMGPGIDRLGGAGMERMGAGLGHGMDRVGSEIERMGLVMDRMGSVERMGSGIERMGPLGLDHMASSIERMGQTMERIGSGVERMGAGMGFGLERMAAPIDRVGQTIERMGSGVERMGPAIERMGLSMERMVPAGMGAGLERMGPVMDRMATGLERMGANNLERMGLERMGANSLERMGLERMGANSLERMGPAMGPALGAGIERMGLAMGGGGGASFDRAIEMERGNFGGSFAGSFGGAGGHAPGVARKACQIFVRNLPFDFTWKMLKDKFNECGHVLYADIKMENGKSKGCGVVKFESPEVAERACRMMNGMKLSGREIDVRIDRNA

[7] = target: T7, HeLa cell extract proteins (Homo sapiens, UniProt P60228)
T7 construct: endogenous in cells; host or cells: HeLa cell extract
T7 sequence (P60228 whole entry): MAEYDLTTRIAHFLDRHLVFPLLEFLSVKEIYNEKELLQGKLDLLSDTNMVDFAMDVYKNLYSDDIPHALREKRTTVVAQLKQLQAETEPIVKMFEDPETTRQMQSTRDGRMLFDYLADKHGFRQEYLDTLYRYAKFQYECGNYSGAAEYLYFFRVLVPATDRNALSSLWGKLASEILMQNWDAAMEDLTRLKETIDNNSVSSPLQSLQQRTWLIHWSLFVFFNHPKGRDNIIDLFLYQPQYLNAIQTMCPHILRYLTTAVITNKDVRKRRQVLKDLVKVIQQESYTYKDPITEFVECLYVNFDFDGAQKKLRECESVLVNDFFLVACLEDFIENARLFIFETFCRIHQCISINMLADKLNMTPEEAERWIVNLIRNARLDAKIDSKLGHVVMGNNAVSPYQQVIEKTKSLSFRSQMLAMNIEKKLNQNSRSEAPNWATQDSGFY

[8] = target: T8, HeLa cell extract proteins (Homo sapiens, UniProt P63104)
T8 construct: endogenous in cells; host or cells: HeLa cell extract
T8 sequence (P63104 1-245): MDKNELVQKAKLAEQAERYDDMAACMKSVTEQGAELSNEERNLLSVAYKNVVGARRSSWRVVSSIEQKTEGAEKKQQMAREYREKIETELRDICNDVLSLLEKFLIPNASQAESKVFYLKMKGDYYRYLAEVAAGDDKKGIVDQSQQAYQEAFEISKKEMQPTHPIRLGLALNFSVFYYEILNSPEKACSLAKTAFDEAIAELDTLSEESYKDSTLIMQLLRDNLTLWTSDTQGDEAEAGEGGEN

[9] = target: T9, HeLa cell extract proteins (Homo sapiens, UniProt Q5T4S7)
T9 construct: endogenous in cells; host or cells: HeLa cell extract

[10] = target: T10, HeLa cell extract proteins (Homo sapiens, UniProt Q9NQX3)
T10 construct: endogenous in cells; host or cells: HeLa cell extract
T10 sequence (Q9NQX3 1-736): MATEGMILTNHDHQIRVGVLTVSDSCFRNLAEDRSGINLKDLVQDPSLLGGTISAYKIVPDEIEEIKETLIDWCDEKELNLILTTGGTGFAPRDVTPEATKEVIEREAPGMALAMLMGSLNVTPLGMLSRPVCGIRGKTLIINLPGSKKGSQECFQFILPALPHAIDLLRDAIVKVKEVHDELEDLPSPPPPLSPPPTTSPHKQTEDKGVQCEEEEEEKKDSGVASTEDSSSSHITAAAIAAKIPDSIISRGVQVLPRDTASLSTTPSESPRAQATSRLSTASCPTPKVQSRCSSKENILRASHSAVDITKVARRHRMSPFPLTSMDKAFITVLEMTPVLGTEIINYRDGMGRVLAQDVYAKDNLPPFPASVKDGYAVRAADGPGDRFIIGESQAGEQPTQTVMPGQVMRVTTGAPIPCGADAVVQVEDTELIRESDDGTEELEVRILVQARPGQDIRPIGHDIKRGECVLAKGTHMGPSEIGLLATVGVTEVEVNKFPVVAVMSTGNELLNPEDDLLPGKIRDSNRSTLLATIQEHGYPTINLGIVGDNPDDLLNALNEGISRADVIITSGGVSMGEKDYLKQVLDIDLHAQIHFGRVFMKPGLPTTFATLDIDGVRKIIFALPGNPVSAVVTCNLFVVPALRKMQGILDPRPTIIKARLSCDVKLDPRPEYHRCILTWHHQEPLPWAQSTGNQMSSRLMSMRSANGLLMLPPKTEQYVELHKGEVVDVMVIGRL

[11] = HeLa, protein CFL1 (COFILIN-1.)
[12] = HeLa, protein YWHAZ (28 KDA PROTEIN.)

T1 sequence (O00303 whole entry): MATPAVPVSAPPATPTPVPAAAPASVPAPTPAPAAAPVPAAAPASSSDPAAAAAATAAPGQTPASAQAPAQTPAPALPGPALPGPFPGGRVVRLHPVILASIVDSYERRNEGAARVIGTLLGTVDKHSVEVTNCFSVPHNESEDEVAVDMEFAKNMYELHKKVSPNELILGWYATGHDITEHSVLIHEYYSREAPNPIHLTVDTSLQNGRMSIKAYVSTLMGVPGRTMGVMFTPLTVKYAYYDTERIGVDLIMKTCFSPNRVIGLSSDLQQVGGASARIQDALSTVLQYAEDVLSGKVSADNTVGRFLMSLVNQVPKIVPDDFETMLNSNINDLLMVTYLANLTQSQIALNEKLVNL

Nc1nc2c(c(=O)[nH]1)N(C=O)C(CNc1ccc(C(=O)N[C@@H](CCC(=O)O)C(=O)O)cc1)CN2 (stereo partly shown) [LEU, leucovorin]
fold changes relative to vehicle control ([1]; protein EIF3F, HeLa): 0.95 | fold changes relative to vehicle control ([2]; HeLa, protein AKR1B1): 1.1 | fold changes relative to vehicle control ([3]; protein CFL1, HeLa): 0.76 | fold changes relative to vehicle control ([4]; HeLa, protein DNAJA1): 0.99 | fold changes relative to vehicle control ([5]; HeLa, captured protein HNRNPH1): 0.96 | fold changes relative to vehicle control ([6]; HeLa, captured protein HNRNPM): 0.83 | fold changes relative to vehicle control ([7]; HeLa, protein EIF3E): 1.15 | fold changes relative to vehicle control ([8]; HeLa, protein YWHAZ): 1.05 | fold changes relative to vehicle control ([9]; protein UBR4, HeLa): 1.02 | fold changes relative to vehicle control ([10]; HeLa, captured protein GPHN): 0.81

NCCCNc1ccc(C(=O)NC(CCC(=O)O)C(=O)O)cc1 (stereo not shown) [compound 7]
fold changes relative to vehicle control ([1]; protein EIF3F, HeLa): 1.01 | fold changes relative to vehicle control ([2]; HeLa, protein AKR1B1): 0.95 | fold changes relative to vehicle control ([3]; protein CFL1, HeLa): 0.69 | fold changes relative to vehicle control ([4]; HeLa, protein DNAJA1): 1.15 | fold changes relative to vehicle control ([5]; HeLa, captured protein HNRNPH1): 0.92 | fold changes relative to vehicle control ([6]; HeLa, captured protein HNRNPM): 1.02 | fold changes relative to vehicle control ([7]; HeLa, protein EIF3E): 1.01 | fold changes relative to vehicle control ([8]; HeLa, protein YWHAZ): 0.9 | fold changes relative to vehicle control ([9]; protein UBR4, HeLa): 1.02 | fold changes relative to vehicle control ([10]; HeLa, captured protein GPHN): 1.03

CCCCCCOc1cccc(Cc2cnc(N)nc2N)c1 [compound 2]
fold changes relative to vehicle control ([1]; HeLa, protein EIF3F): 1.24 | fold changes relative to vehicle control ([2]; protein AKR1B1, HeLa): 1.7 | fold changes relative to vehicle control [3, 11]: 2.02 fold | fold changes relative to vehicle control ([4]; HeLa, protein DNAJA1): 1.11 | fold changes relative to vehicle control ([5]; HeLa, protein HNRNPH1): 1.02 | fold changes relative to vehicle control ([6]; HeLa, protein HNRNPM): 1.21 | fold changes relative to vehicle control ([7]; protein EIF3E, HeLa): 1.21 | fold changes relative to vehicle control [8, 12]: 2.26 fold | fold changes relative to vehicle control ([9]; protein UBR4, HeLa): 1.19 | fold changes relative to vehicle control ([10]; protein GPHN, HeLa): 0.93

CCCCCCOc1ccc(Cc2cnc(N)nc2N)cc1 [compound 1]
fold changes relative to vehicle control ([1]; HeLa, protein EIF3F): 0.93 | fold changes relative to vehicle control ([2]; protein AKR1B1, HeLa): 1.12 | fold changes relative to vehicle control [3, 11]: 1.27 fold | fold changes relative to vehicle control ([4]; HeLa, protein DNAJA1): 1.07 | fold changes relative to vehicle control ([5]; HeLa, protein HNRNPH1): 0.96 | fold changes relative to vehicle control ([6]; HeLa, protein HNRNPM): 1.09 | fold changes relative to vehicle control ([7]; protein EIF3E, HeLa): 1.18 | fold changes relative to vehicle control [8, 12]: 1.31 fold | fold changes relative to vehicle control ([9]; protein UBR4, HeLa): 1.14 | fold changes relative to vehicle control ([10]; protein GPHN, HeLa): 0.94

Nc1nc2cccc(-c3ccccc3)c2n1Cc1ccc(Cl)c(Cl)c1 [compound 3]
fold changes relative to vehicle control ([1]; HeLa, protein EIF3F): 1.05 | fold changes relative to vehicle control ([2]; protein AKR1B1, HeLa): 0.8 | fold changes relative to vehicle control [3, 11]: 0.82 fold | fold changes relative to vehicle control ([4]; HeLa, protein DNAJA1): 0.92 | fold changes relative to vehicle control ([5]; HeLa, protein HNRNPH1): 1 | fold changes relative to vehicle control ([6]; HeLa, protein HNRNPM): 0.88 | fold changes relative to vehicle control ([7]; protein EIF3E, HeLa): 0.99 | fold changes relative to vehicle control [8, 12]: 0.72 fold | fold changes relative to vehicle control ([9]; protein UBR4, HeLa): 1.08 | fold changes relative to vehicle control ([10]; protein GPHN, HeLa): 0.96

NCCOCCOCC(=O)Nc1nc2ncc(CNc3ccc(C(=O)NC(CCC(=O)O)C(=O)O)cc3)nc2c(=O)[nH]1 (stereo not shown) [compound 6]
fold changes relative to vehicle control ([1]; protein EIF3F, HeLa): 0.96 | fold changes relative to vehicle control ([2]; HeLa, protein AKR1B1): 1.2 | fold changes relative to vehicle control ([3]; protein CFL1, HeLa): 0.89 | fold changes relative to vehicle control ([4]; HeLa, protein DNAJA1): 1.06 | fold changes relative to vehicle control ([5]; HeLa, captured protein HNRNPH1): 0.84 | fold changes relative to vehicle control ([6]; HeLa, captured protein HNRNPM): 1.01 | fold changes relative to vehicle control ([7]; HeLa, protein EIF3E): 1.11 | fold changes relative to vehicle control ([8]; HeLa, protein YWHAZ): 1.22 | fold changes relative to vehicle control ([9]; protein UBR4, HeLa): 0.42 | fold changes relative to vehicle control ([10]; HeLa, captured protein GPHN): 0.99

Nc1nc2[nH]cc(CCc3ccc(C(=O)N[C@@H](CCC(=O)O)C(=O)O)cc3)c2c(=O)[nH]1 [PTX, pemetrexed]
fold changes relative to vehicle control [1]: 0.92 | fold changes relative to vehicle control [2]: 1.22 | fold changes relative to vehicle control [3]: 0.79 | fold changes relative to vehicle control [4]: 0.93 | fold changes relative to vehicle control [5]: 0.86 | fold changes relative to vehicle control [6]: 0.99 | fold changes relative to vehicle control [7]: 1.04 | fold changes relative to vehicle control [8]: 1.08 | fold changes relative to vehicle control [9]: 0.94 | fold changes relative to vehicle control [10]: 0.83
